Data published in ChEMBL document CHEMBL3507680, “University of Dundee, Gates Library screen for HepG2 cell viability”.

Test: Human HepG2 cell viability assay in 384 well format
Format: toxicity, cell-based
Design: dose 125 nL, time 70.5 hour; cytotoxicity at 70.5 h: concentration not given beside the values
Settings: HepG2 cells, read-out: Inhibition

| Compound | cytotoxicity at 70.5 h |
| --- | --- |
| CC(C)n1ccc2cc(C(=O)Nc3nc[nH]n3)ccc21 | -15.9% |
| Cc1nn(C)c(C)c1C1SCC(=O)Nc2c1c(O)nn2C(C)C (stereo not drawn) | -28.8% |
| Cc1nc(C(=O)N2CCN(S(=O)(=O)N(C)C)CC2)c(-c2ccccc2)s1 | 13.5% |
| COCCn1ccc2c(C(=O)NC(C)C)cccc21 | -12.3% |
| O=C(CCc1nc2cc(Br)cnc2[nH]1)NCCCN1CCOCC1 | -17.4% |
| CC(C)C1SCC(=O)Nc2c1c(O)nn2C1CCCCC1 (stereo not drawn) | -23.1% |
| CC(C)C1SCC(=O)Nc2c1cnn2-c1ccc(Cl)cc1F (stereo not drawn) | 0.678% |
| CC(C)(C)c1csc(CCNC(=O)[C@H](c2ccccc2)n2cnnn2)n1 | -5.57% |
| Cc1nn(-c2ccc(C(=O)O)cc2)c2c1C(C(F)(F)F)SCC(=O)N2 (stereo not drawn) | -5.65% |
| COc1ccc2c(c1)c(C(=O)Nc1nnn[nH]1)cn2C(C)C | 24.1% |
| CC(C)n1cc(C(=O)NC2CCS(=O)(=O)C2)c2ccccc2c1=O (stereo not drawn) | -14.3% |
| O=C(NC1CCS(=O)(=O)C1)c1cn(C2CC2)c(=O)c2ccccc12 (stereo not drawn) | -14.3% |
| CC(C)CNC(=O)c1cn(-c2ccccn2)c(=O)c2ccccc12 | -7.97% |
| Cc1nn(-c2ccc(C(=O)O)cc2)c2c1C(CC(C)C)SCC(=O)N2 (stereo not drawn) | 0.483% |
| Cc1nc(C(=O)N2CCN(S(C)(=O)=O)CC2)c(-c2cccc(F)c2)s1 | 9.8% |
| Cc1c(C2SCC(=O)Nc3c2c(O)nn3C2CCCC2)cnn1C (stereo not drawn) | -22.8% |
| Cc1nnsc1-c1nnc2sc(C3CCC3)nn12 | -10% |
| O=c1c(CN2CCCCCC2)coc(O)c1CN1CCCCCC1 | -4.84% |
| O=C1CCC(c2ccc(Cl)cc2)=NN1CN1CCSCC1 | -15.1% |
| O=C1CSC(C(F)(F)F)c2c(O)nn(C3CCCCC3)c2N1 (stereo not drawn) | 15.2% |
| CC(C)CCn1cc(C(=O)NC2CCS(=O)(=O)C2)c2ccccc2c1=O (stereo not drawn) | -12.4% |

| Compound | cytotoxicity at 70.5 h |
| --- | --- |
| COC(=O)CCNC(=O)c1cc(-c2ccc(OC)cc2)nn1C | -3.5% |
| O=C(CNC(=O)c1cnccn1)Nc1ncc[nH]1 | -33.4% |
| O=C(Cn1ccc2c(Cl)cccc21)Nc1nc[nH]n1 | -11.2% |
| Cc1cc(C)nc(NCCC(=O)NCCn2ccc3ccccc32)n1 | 5.63% |
| COCCn1ccc2cc(C(=O)N3CCN(S(C)(=O)=O)CC3)ccc21 | -5.85% |
| CNC(=O)c1nc(Cn2ncc3ccccc3c2=O)no1 | -3.17% |
| CCc1cnc(C)nc1NCc1nc(COC)no1 | -6.43% |
| Cc1cc(C(=O)N[C@H]2CN(CCC(N)=O)C[C@@H]2C2CC2)sc1C | 9.55% |
| CC(=O)Nc1cccc(-c2ccccc2CCN)c1 | -1.04% |
| C/C=C(\C)CN(CCN1CCOCC1)Cc1ccco1 | -8.08% |
| CCn1nc(C)c(CCNC(=O)c2cccc(-n3cccn3)c2)c1C | -3.23% |
| Nc1nc(CN2CCCCC2Cn2cncn2)nc2ccccc12 (stereo not drawn) | 0.228% |
| CCc1nc(C2CCCN2Cc2cc(C)nc3ccccc23)no1 (stereo not drawn) | 2.62% |
| CC(C)c1nc(C2CCCN(C(=O)c3ccc(N(C)C)nn3)C2)no1 (stereo not drawn) | -1.24% |
| COc1ccc(C(=O)N2CCCC2c2noc(C(C)C)n2)nn1 (stereo not drawn) | -4.87% |
| Cc1nccc(C(=O)N2CCCC2c2noc(C(C)C)n2)n1 (stereo not drawn) | 22.8% |
| CCOc1ccc(C(=O)N2CCCC(n3nc(C)nc3C)C2)cc1 (stereo not drawn) | 1.39% |
| Cc1nc(C)n(C2CCCN(C(=O)c3ccc(F)c(F)c3)C2)n1 (stereo not drawn) | -2.21% |
| CCc1cnc(CN(C(C)=O)C2CCN(Cc3nccn3C)C2)o1 (stereo not drawn) | 1.08% |
| CC(=O)N(Cc1ncc(C(C)C)o1)C1CCN(CCn2cncn2)C1 (stereo not drawn) | -3.83% |
| CC(=O)N(Cc1ncc(C(C)C)o1)C1CCN(CC2CCC2)C1 (stereo not drawn) | -3.28% |

| Compound | cytotoxicity at 70.5 h |
| --- | --- |
| CCc1nc(C2CCCN2Cc2nnc(C3CCC3)o2)no1 (stereo not drawn) | -2.49% |
| CC(C)c1ncc2c(n1)CN(Cc1nnc(Cc3ccccc3)o1)CC2 | -5.27% |
| COc1ccc(C(CNC(=O)c2c(C)noc2C)N(C)C)cc1 (stereo not drawn) | 21.1% |
| CS(=O)(=O)N1CCN(C(=O)CCn2cccn2)CC1 | -6.72% |
| O=C(CCn1cccn1)N1CCSCC1 | -4.39% |
| Cc1ccc(-c2nc(C(=O)N3CCN(C(=O)N(C)C)CC3)cs2)c(C)c1 | -9.21% |
| O=C(NCCc1ccccn1)Nc1cc(C(F)(F)F)c[nH]c1=O | -2.62% |
| O=C(NCCOc1ccccc1)Nc1cc(C(F)(F)F)c[nH]c1=O | -1.52% |
| CC(=O)N1CCN(C(=O)c2csc(-c3ccc(C)cc3C)n2)CC1 | 14.1% |
| Cc1nc(-c2ccc(Cl)s2)sc1C(=O)NC(C)(C)C(N)=O | -4.82% |
| CN1CCCN(C(=O)NCc2cc(Br)cs2)CC1 | -1.99% |
| Cc1noc(C)c1C(=O)NCC(c1cccc(F)c1)N(C)C (stereo not drawn) | -4.95% |
| Cc1ccc(-c2nc(C(=O)N(C)C3CCN(C)CC3)cs2)c(C)c1 | -1.64% |
| CCOC(=O)c1sc2ccsc2c1CNS(C)(=O)=O | -3.52% |
| CC(C)c1nc(C2CCCN2Cc2nnc(C3CCC3)o2)no1 (stereo not drawn) | 14.8% |
| C1CC(c2noc(C3CC3)n2)N(Cc2nnc(C3CC3)o2)C1 (stereo not drawn) | -7.72% |
| CCc1nc(CN2CCOC(Cn3cncn3)C2)no1 (stereo not drawn) | 16.6% |
| COc1c(CNCCNC(=O)c2cccs2)c(C)nn1C | -10.5% |
| CCCc1nc(C(C)(C)NC(=O)C2CC(=O)N(CC(C)C)C2)no1 (stereo not drawn) | -4.84% |
| Cc1ncsc1C(=O)NCCNC(=O)Cc1cccc(F)c1 | -6.49% |
| Cc1ncc(C(=O)NCCNC(=O)Cc2cccc(F)c2)s1 | -6.72% |

| Compound | cytotoxicity at 70.5 h |
| --- | --- |
| CCOc1cc(C)nc(N2CCN(C(=O)Cn3cc(C)cn3)CC2)n1 | -0.0989% |
| CC(NC(=O)NCCN1CCCC1)c1nncn1C (stereo not drawn) | -8.29% |
| CCOc1cc(C)nc(N2CCN(C(=O)c3cnc[nH]3)CC2)n1 | -0.152% |
| NC(=O)C1CCCN(C(=O)c2ccn(-c3ccc(F)cc3)n2)C1 (stereo not drawn) | -5.61% |
| CCOc1cc(C)nc(N2CCN(C(=O)c3cscn3)CC2)n1 | -4.61% |
| O=C(CCN1CCCC1=O)Nc1cnn(-c2ccccc2Cl)c1 | -8.1% |
| CC(C)Cc1nc(CN2CCOC(Cn3cncn3)C2)no1 (stereo not drawn) | -8.48% |
| Cc1nccc(C(=O)N2CCCC(c3cc(C(F)(F)F)[nH]n3)C2)n1 (stereo not drawn) | -2.27% |
| Cc1noc(C)c1C(=O)N1CCCC(c2cc(C(F)(F)F)[nH]n2)C1 (stereo not drawn) | 11% |
| Cc1ccc(C(=O)NS(=O)(=O)c2ccccc2Cl)c(=O)[nH]1 | 9.73% |
| CC(C)c1ccc(CCC(=O)N2CCOCC2c2ncon2)cc1 (stereo not drawn) | -5.22% |
| Cc1nc(CN2CCCC(N(C)CCCc3ccccc3)C2)no1 (stereo not drawn) | -5.01% |
| Cc1nc(CN2CCCC(N(C)CCOCC(F)(F)F)C2)no1 (stereo not drawn) | -6.75% |
| Cc1cc(NC(=O)CN2CCCC2c2c(C)nn(C)c2Cl)on1 (stereo not drawn) | -0.864% |
| N#Cc1ccc(F)c(CN2CCCCC2Cn2cccn2)c1 (stereo not drawn) | 0.631% |
| COc1c(C2CCCN2CC(=O)Nc2cc(C)nn2C)c(C)nn1C (stereo not drawn) | -3.3% |
| N#Cc1ccc(CN2CCCC2Cn2cccn2)c(F)c1 (stereo not drawn) | 4.66% |
| Cc1nc(CN(C)CC(c2cccs2)N2CCOCC2)no1 (stereo not drawn) | -1.7% |
| O=C(NC1CC1)N1CCN(c2cnccn2)CC1 | -1.17% |
| CC(C)c1nn(C)cc1CNC1CCOc2ccccc21 (stereo not drawn) | -7.85% |
